≈ marks a conversion by molar mass, not a printed value. Read-outs that look alike come from different tables or passages of the source.
Experiments:
[1] = test system: Escherichia coli ATCC 33,876; experiment: Broth microdilution susceptibility assay (MIC) with plating on agar (MBC); format: cell-based; conditions: ATCC33, E. coli, overnight 37 °C, conjugate concentration as loaded ADEP1 analogue
From the text: (§1) ADEP1 analogues (SC005-8) were synthesized in-house, as described by Cobongela et al., [11]. 1-Ethyl-3-(3-dimethylaminopropyl) carbodiimide (EDC), […] (sulfo-NHS), dimethyl sulfoxide (DMSO), thioglycolic acid (TGA), silver nitrate (AgNO3), sodium sulfide (Na2S·xH2O), gelatin, Dulbecco’s Modified Eagle Medium (DMEM), phosphate, trypsin, penicillin-streptomycin, fetal bovine serum (FBS), 3-(4,5-dimethylthiazol-2-yl)-5-(3-carboxymethoxyphenyl)-2-(4-sulfophenyl)-2H-tetrazolium (MTS dye), and trypan blue stain dye were all purchased from Sigma (St Louis, MO, USA). Bacillus subtilis American Type Culture Collection (ATCC) 11774, Staphylococcus aureus ATCC 25,923 and Methicillin-resistant Staphylococcus aureus (MRSA) ATCC 43300, and two Gram-negative (Escherichia coli ATCC 33,876 and Pseudomonas aeruginosa ATCC 15,442 were purchased from ATCC (Manassas, VA, USA). Human embryonic kidney 293 (HEK-293) cells were purchased from Cellonex (Randburg, Gauteng Province, South Africa).
(§2) The MIC and MBC of the AgInS2-ADEP1 analogue conjugates against B. subtilis, S. aureus, MRSA, P. aeruginosa and E. coli was determined using the broth microdilution susceptibility assay, following a previously described protocol. Briefly, overnight-grown bacterial cultures were adjusted to approximately 1.5 × 10^8 CFU/mL in a sterile Luria–Bertani broth. The concentration of ADEP1 on AgInS2-ADEP1 analogue conjugates was calculated based on the ADEP1 analogues calibration curve. AgInS2-ADEP1 analogue conjugates and ADEP1 analogues were diluted via 2-fold serial dilution with broth containing a final concentration range of 0.8–100 µM and 15.6–2000 µM, respectively. Gentamicin (concentration range between 0.007 and 6.7 mM) was used as a positive control for B. subtilis, S. aureus, MRSA, and P. aeruginosa, while ampicillin (concentration range between 0.18 and 6.7 mM) was used as a positive control for E. coli, and 5% DMSO was used as a negative control. The 96-well plates were then incubated overnight at 37 °C. […] The MBC was determined as the lowest concentration resulting in complete […].

[2] = Hydrodynamic size by dynamic light scattering (DLS); format: physicochemical; conditions: AgInS2 QDs alone or after conjugation with the named ADEP1 analogue
Method: (§3) A Spectro Xepos-05 energy-dispersive X-ray fluorescence (ED-XRF, Rigaku, TX, USA) instrument was used to determine the Ag, In, and S concentrations in the gelatin-capped AgInS2 QD powder. The core sizes of AgInS2 QDs and AgInS2-ADEP1 analogue conjugates were analyzed by the high-resolution transmission electron microscope (HR-TEM, JEOL, Tokyo, Japan). Fourier transform infrared spectroscopy (FTIR) spectra were recorded using a Perkin Elmer Spectrum Two UATR-FTIR spectrometer (PerkinElmer, Buckinghamshire, UK). The Hitachi F-2700FL spectrofluorophotometer (Hitachi, Tokyo, Japan) was used for the fluorescence measurements. Malvern system 4700 zetasizer (Malvern, Great Malvern, UK) together with a dynamic light scattering (DLS) technique were used to determine the zeta potential and particle hydrodynamic size of the AgInS2 QDs and AgInS2-ADEP1 analogue conjugates using.

[3] = test system: Staphylococcus aureus ATCC 25,923; conditions: S. aureus; free ADEP1 analogues; cited from earlier work
From the text: Table 4 MIC and MBC values of the AgInS2 QD-ADEP1 analogue conjugates and ADEP1 analogues. | column: S. aureus / MIC µM; S. aureus / MBC µM

[4] = test system: Methicillin-resistant Staphylococcus aureus (MRSA) ATCC 43300; conditions: free ADEP1 analogues; cited from earlier work
From the text: Table 4 MIC and MBC values of the AgInS2 QD-ADEP1 analogue conjugates and ADEP1 analogues. | column: MRSA / MIC µM; MRSA / MBC µM

[5] = test system: Bacillus subtilis ATCC 11774; conditions: B. subtilis; free ADEP1 analogues; cited from earlier work
From the text: Table 4 MIC and MBC values of the AgInS2 QD-ADEP1 analogue conjugates and ADEP1 analogues. | column: B. subtilis / MIC µM; B. subtilis / MBC µM

[6] = Zeta potential (zetasizer); format: physicochemical; conditions: Malvern zetasizer; for Zeta Potential after Conjugation: after conjugation to gelatin-capped AgInS2 QDs; for Zeta Potential before Conjugation: unconjugated ADEP1 analogue or AgInS2 QDs alone
Method: as §3

[7] = test system: Pseudomonas aeruginosa ATCC 15,442; conditions: P. aeruginosa; free ADEP1 analogues; cited from earlier work
From the text: Table 4 MIC and MBC values of the AgInS2 QD-ADEP1 analogue conjugates and ADEP1 analogues. | column: P. aeruginosa / MIC µM; P. aeruginosa / MBC µM

[8] = test system: Escherichia coli ATCC 33,876; conditions: E. coli; free ADEP1 analogues; cited from earlier work
From the text: Table 4 MIC and MBC values of the AgInS2 QD-ADEP1 analogue conjugates and ADEP1 analogues. | column: E. coli / MIC µM; E. coli / MBC µM

[9] = test system: Bacillus subtilis ATCC 11774; experiment: Broth microdilution susceptibility assay (MIC) with plating on agar (MBC); format: cell-based; conditions: ATCC11774, B. subtilis, overnight 37 °C, conjugate concentration as loaded ADEP1 analogue
From the text: as §1, §2

[10] = test system: Methicillin-resistant Staphylococcus aureus (MRSA) ATCC 43300; experiment: as above; format: cell-based; conditions: overnight 37 °C, conjugate concentration as loaded ADEP1 analogue
From the text: as §1, §2

[11] = test system: Pseudomonas aeruginosa ATCC 15,442; experiment: as above; format: cell-based; conditions: ATCC15, P. aeruginosa, overnight 37 °C, conjugate concentration as loaded ADEP1 analogue
From the text: as §1, §2

[12] = test system: Staphylococcus aureus ATCC 25,923; experiment: as above; format: cell-based; conditions: ATCC25, S. aureus, overnight 37 °C, conjugate concentration as loaded ADEP1 analogue
From the text: as §1, §2

[13] = Luria-Bertani broth, ~1.5 × 10^8 CFU/mL
[14] = MIC wells plated on Luria-Bertani agar

## CC1(C)S[C@@H]2[C@H](NC(=O)[C@H](N)c3ccccc3)C(=O)N2[C@H]1C(=O)O [Ampicillin]
[1]; [13]
  MIC: 2860 µM (≈ 1000 µg/mL)
[1]; [14]
  MBC: 5720 µM (≈ 2000 µg/mL)

## Adamantane-FCPAAPC; D-form amino acids (disulfide) [SC006, Disulphide bond cyclized ADEP1 analogue, Adamantane-FCPAAPC, D-form amino acids]
[2]
  Hydrodynamic Diameter: 44.2 ± 1.4 nm
[3]
  MBC: 125 µM
  MIC: 63 µM
[4]
  MBC: 250 µM
  MIC: 250 µM
[5]
  MBC: 250 µM
  MIC: 250 µM
[6]
  Zeta Potential after Conjugation: 1.38 ± 0.06 mV
  Zeta Potential before Conjugation: −3.8 ± 1.1 mV
[7]
  MBC: 250 µM
  MIC: 125 µM
[8]
  MBC: 750 µM
  MIC: 500 µM

## CNC(C)C1CCC(N)C(OC2C(N)CC(N)C(OC3OCC(C)(O)C(NC)C3O)C2O)O1 (centres unmarked) [Gentamicin]
[9]; Luria-Bertani broth, ~1.5 × 10^8 CFU/mL, no visible growth
  MIC: 26.1 µM (≈ 12.5 µg/mL)
[9]; [14]
  MBC: 52.3 µM (≈ 25 µg/mL)
[10]; [13]
  MIC: 26.2 µM (≈ 12.5 µg/mL)
[10]; [14]
  MBC: 52.4 µM (≈ 25 µg/mL)
[11]; [13]
  MIC: 419 µM (≈ 200 µg/mL)
[11]; [14]
  MBC: 838 µM (≈ 400 µg/mL)
[12]; [13]
  MIC: 0.5 µM (≈ 0.239 µg/mL)
[12]; [14]
  MBC: 1 µM (≈ 0.478 µg/mL)

## Adamantane-FCPAAPC; L-form amino acids (disulfide) [SC007, Disulphide bond cyclized ADEP1 analogue, Adamantane-FCPAAPC, L-form amino acids]
[2]
  Hydrodynamic Diameter: 44.4 ± 0.7 nm
[3]
  MBC: 125 µM
  MIC: 63 µM
[4]
  MBC: 500 µM
  MIC: 250 µM
[5]
  MBC: 125 µM
  MIC: 125 µM
[6]
  Zeta Potential after Conjugation: 1.00 ± 0.15 mV
  Zeta Potential before Conjugation: −3.9 ± 0.8 mV
[7]
  MBC: 250 µM
  MIC: 125 µM
[8]
  MBC: 750 µM
  MIC: 500 µM

## Palmitic acid-FCPAAPC; D-form amino acids (disulfide) [SC005, Disulphide bond cyclized ADEP1 analogue, Palmitic acid-FCPAAPC, D-form amino acids]
[2]
  Hydrodynamic Diameter: 49.6 ± 1.6 nm
[3]
  MBC: 125 µM
  MIC: 63 µM
[4]
  MBC: 250 µM
  MIC: 125 µM
[5]
  MBC: 125 µM
  MIC: 125 µM
[6]
  Zeta Potential after Conjugation: 1.46 ± 0.02 mV
  Zeta Potential before Conjugation: −7.2 ± 1.6 mV
[7]
  MBC: 250 µM
  MIC: 125 µM
[8]
  MBC: 750 µM
  MIC: 500 µM

## Palmitic acid-FCPAAPC; L-form amino acids (disulfide) [SC008, Disulphide bond cyclized ADEP1 analogue, Palmitic acid-FCPAAPC, L-form amino acids]
[2]
  Hydrodynamic Diameter: 50.3 ± 1.6 nm
[3]
  MBC: 125 µM
  MIC: 63 µM
[4]
  MBC: 500 µM
  MIC: 250 µM
[5]
  MBC: 125 µM
  MIC: 125 µM
[6]
  Zeta Potential after Conjugation: 1.39 ± 0.09 mV
  Zeta Potential before Conjugation: −6.9 ± 1.5 mV
[7]
  MBC: 250 µM
  MIC: 125 µM
[8]
  MBC: 750 µM
  MIC: 500 µM

— publication PMC10886425, “Antibacterial Activity and Cytotoxicity Screening of Acyldepsipeptide-1 Analogues Conjugated to Silver/Indium/Sulphide Quantum Dots” (Antibiotics, 2024)
